This note sets out measurements from patent US7067551B2, “Deacetylase inhibitors” (Novartis AG, priority 2000, dated 2006).

The structures appear in SMILES notation.

Series [1] can be described thus: Body weight change of A549 tumor-bearing athymic mice. Format: in vivo. The settings on record: Example B3 repeated, ± SEM. The protocol: (§1) Outbred athymic (nu/nu) female mice (“Hsd:Athymic Nude-nu” from Harlan Sprague Dawley, Indianapolis, Ind.) are anesthetized with Metofane (Mallinckrodt Veterinary, Inc., Mundelein, Ill.), and 100 μL of the cell suspension containing 1×10^7 cells is injected subcutaneously into the right axillary (lateral) region of each animal. Tumors are allowed to grow for about 20 days until a volume of ˜100 mm^3 is achieved. At this point, mice bearing tumors with acceptable morphology and size are sorted into groups of eight for the study. The sorting process produces groups balanced with respect to mean and range of tumor size. Antitumor activity is expressed as % T/C, comparing differences in tumor volumes for treatment group (T) to vehicle control group (C).
(§2) CMD1 is administered intravenously, once daily 5×/week for three weeks, at doses of 10, 25, 50, or 100 mg/kg. The final DMSO concentration is 10%. Each test group has eight mice. Tumors are measured, and individual animal body weights recorded.
(§3) Example B3 repeated except CMD2 is used.

Series [2] deals with H1299 (human lung carcinoma cell). Put plainly: Monolayer cell growth inhibition, MTS assay. The settings on record: NCI-H1299, H1299, 72 hours compound treatment, lactate salts. Format: cell-based. The source says: (§4) Cell lines H1299 (human lung carcinoma cell) and HCT116 (colon tumor cell) are obtained from the American Type Culture Collection, Rockville, Md. The cell lines are free of Mycoplasma contamination (Rapid Detection System by Gen-Probe, Inc., San Diego, Calif.) and viral contamination (MAP testing by MA BioServices, Inc., Rockville, Md.). The cell lines are propagated and expanded in RPMI 1640 medium containing 10% heat-inactivated FBS (Life Technologies, Grand Island, N.Y.). Cell expansions for implantation are performed in cell factories (NUNC, purchased from Fisher Scientific, Springfield, N.J.). Cells are harvested at 50–90% confluency, washed once with HBSS (Hank's Balanced Salt Solution) containing 10% FBS, and suspended in 100% HBSS.
(§5) Cell proliferation is measured with a commercial MTS kit (Promega, Madision, Wis.) assay using an adaptation of published procedures, for example, that disclosed in Feasibility of drug screening with panels of human tumor cell lines using a microculture tetrazolium assay, Alley M C, et al., Cancer Res. 1988; 48:589–601. Cells are plated in 96-well tissue culture dishes, with top and bottom rows left empty. H1299 and HCT116 cells are suspended in complete media at a density of 5.3×10^3 and 3.6×10^3 cell/mL, respectively, and 190 μl are added per well. Each cell line is added to one half of the plate. Complete medium (200 μL) is added to the top and bottom rows. Twenty-four hours later, 10 μl of MTS solution is added to one of the plates to determine the activity at the time of compound addition (T0). The plate is incubated at 37° C. for 4 hours and the OD490 is measured on a Molecular Devices Thermomax at 490 nm using the Softmax program. The T0 plate serves as a reference for initial activity at the beginning of the experiment.
(§6) Five serial dilutions (1:4) of each compound are made in a 96-deep well plate with the highest concentrations on the edge of plate. Two cell lines are tested with two compounds per plate.0 Ten microliters of each of the five dilutions are added in triplicate and complete medium alone is added to columns six and seven. The plates are incubated at 37° C. for 72 hours. The MTS solution is added (as for the T0 plate) and read four hours later.
(§7) In order to analyze the data, the average background value (media alone) is subtracted from each experimental well; the triplicate values are averaged for each compound dilution. The following formulas are used to calculate percent growth.
Lactate salts of N-hydroxy-3-[4-[[[2-(1H-indol-3-yl)-ethyl]-amino]methyl]phenyl]-2E-2-propenamide (CMD1), N-hydroxy-3-[4-[[(2-hydroxyethyl)[2-(1H-indol-3-yl)ethyl]-amino]methyl]phenyl]-2E-2-propenamide (CMD2), N-hydroxy-3-[4-[[[2-(5-methoxy-1H-indol-3-yl)-ethyl]-amino]methyl]pheny]-2E-2-propenamide (CMD3), N-hydroxy-3-[4-[[[2-(5-fluoro-1H-indol-3-yl)-ethyl]-amino]methyl]phenyl]-2E-2-propenamide (CMD4), N-hydroxy-3-[4-[[[2-(benzofur-3-yl)-ethyl]-amino]methyl]phenyl]-2E-2-propenamide (CMD5) having a purity of higher than 95% are dissolved in pure dimethylsulfoxide (DMSO) to create a stock solution. The stock solution is diluted with 5% dextrose injection, USP, just prior to dosing.
(In general: Tetrazolium assays rely on reduction of a dye to a coloured formazan, in cell work by metabolically active cells.)

Series [3] deals with A549 non-small cell lung human tumor cell line. The experiment in a line: A549 tumor xenograft in athymic mice, antitumor activity. Format: in vivo. Conditions: Example B3 repeated; for Δ MEAN TUMOR VOLUME: ± SEM. The protocol:
as §4, with “The A549 non-small cell” for “Cell lines H1299 (human”, “human” for “carcinoma cell) and HCT116 (colon”, “cell line is purchased” for “cell) are obtained”, “line is” for “lines are”, “HBSS” for “HBSS (Hank's Balanced Salt Solution)”
as §1, §2, §3

For another series, the system named is HCT116. Put plainly: Annexin V / propidium iodide staining (apoptosis), fluorescence microscopy. It is filed as cell-based, human. The settings on record: for cells exhibiting cell surface staining with annexin V: HCT116, 24 hour exposure; for cells staining with annexin V and/or propidium iodide: HCT116, 48 hour treatment. The protocol:
(§8) Annexin V binding was used as a marker for the early stages of apoptosis. A549,HCT116 and Normal Dermal Human Fibroblasts (NDHF) cells are treated separately with four compounds (CMD1, CMD2, CMD3 and CMD4) for 24 or 48 hours, stained with annexin V and compared to cells treated similarly with vehicle (DMSO). Cells are examined by fluorescence microscopy. […] Viability is assessed by the counterstain, propidium iodide. Cells detected by red fluorescence are not viable.

The next series relates to A549. The description is as above. Format: cell-based, human. The settings on record: for cells exhibiting cell surface staining with annexin V: A549, 24 hour exposure; for cells staining with annexin V and/or propidium iodide: A549, 48 hour treatment. The procedure: as §8
A short description of series [4]: Body weight change of HCT116 tumor-bearing athymic mice. Format: in vivo. Conditions: 34th day, ± SEM. The procedure: as §1, §2
(§9) Example B3 is repeated except the HCT116 colon tumor cell line is used in place of the A549 cell line. The HCT116 cell line is also obtained from American Type Culture Collection, Rockville, Md., and the cell line is free of Mycoplasma contamination and viral contamination.
(§10) Example B4 is repeated except the HCT116 colon tumor cell line is used in place of the A549 cell line. The HCT116 is also obtained from American Type Culture Collection, Rockville, Md., and the cell line is free of Mycoplasma contamination and viral contamination.

Series [5] relates to HDA partially purified from H1299 cells. Put plainly: HDA enzyme assay, 3H-acetate release from acetylated histone H4 peptide. It is filed as biochemical, human. The settings on record: HDA partially purified from H1299, 37° C. 1.5 hr.
Description: HDA is partially purified from H1299, human non-small cell lung carcinoma cells (obtained from American Type Culture Collection, 12301 Parklawn Drive, Rockville, Md. 20852, USA). Cells are grown to 70–80% confluence in RPMI media in the presence of 10% FCS, harvested and lysed by sonication. The lysate is centrifuged at 23,420 g for 10–15 min, the supernatant is applied to a Hiload 26/10 High performance Q-sepharose column (Amersham Pharmacia Biotech), and equilibrated with a buffer containing 20 mM Tris pH8.0, 1 mM EDTA, 10 mM NH4Cl2, 1 mM μ-Mercaptoethanol, 5% glycerol, 2 μg/mL aprotinin, 1 μg/mL leupeptin, and 400 mM PMSF. Proteins are eluted in 4 mL aliquots with a linear gradient from 0–500 mM NaCl in the above buffer at a flow rate of 2.5 mL/min. Each preparation of partially purified HDA enzyme is titrated to determine the optimal amount needed to obtain a signal to noise ratio of at least 5 to 1. […] The compounds are serially diluted in DMSO to generate stocks at 20-fold of the assay concentrations. Final concentrations of compounds in the assay are 10 μM, 2 μM, 400 nM, 80 nM, and 16 nM with the final percentage of DMSO in each enzyme reaction equaling 0.1%. Each concentration of compound is assayed in duplicate. The substrate used in the reaction is a peptide of amino acid sequence, [sequence], corresponding to the twenty-four N-terminal amino acids of human histone H4, biotinylated at the N-terminus and penta-acetylated, at each lysine residue with ^3H-acetate. To initiate the reaction, the substrate is diluted in 10 μL of Buffer A (100 mM Tris pH 8.0, 2 mM EDTA), added to the enzyme mixture and collected at the bottom of the deep well plate by centrifugation for 5 minutes at 1500 rpm. Following centrifugation, the mixture is incubated at 37° C. for 1.5 hr. The reaction is stopped by the addition of 20 μL of the Stop Buffer (0.5N HCl, 0.08M Acetic Acid). At this point, the assay proceeds to the robotic extraction phase or is frozen for several days at −80° C.
The extraction of enzymatically cleaved ^3H-acetate groups from the reaction mixture is achieved with the solvent TBME (t-butyl methyl ether) using the Tomtec Quadra 96 workstation. A program is written to add 200 μL of TBME to a 96 “deep well” plate. The workstation is programmed to aspirate 50 μL of air followed by 200 μL of TBME and finally another 25 μL of air, which is dispensed into the each well of the plate. The contents of the deep well were mixed thoroughly by pipetting 160 μL up and down 10 times. Before addition of TBME to the reaction mixture, it is necessary to “pre-wet” the pipette tips with TBME to prevent the solvent from dripping during the transfer to the deep well plate. The organic and aqueous phases in the deep well are separated by centrifugation at 1500 rpm for 5 min. Opti-Phase Supermix liquid scintillation cocktail (200 μL) (Wallac) is added to each well of the 96-well Trilux plate (Wallac). […] The Trilux plate is covered with clear film and read on a 1450 MicroBeta Trilux liquid scintillation and luminescence counter (Wallac) with a color/chemical quench and dpm correction.
In order to determine the IC50 values, the data are analyzed on a spreadsheet. The analysis requires a correction for the background luminescence that is accomplished by subtracting the dpm values of wells without ^3H substrate from the experimental wells. […]
The subject of series [6] is Normal Dermal Human Fibroblasts (NDHF). The experiment in a line: Annexin V / propidium iodide staining (apoptosis), fluorescence microscopy. Format: cell-based. Conditions: NDHF cells. The protocol: as §8
For series [7], the system named is HCT116 colon tumor cell line. The experiment in a line: HCT116 tumor xenograft in athymic mice, antitumor activity. Format: in vivo. Conditions: 34th day; for Δ MEAN TUMOR VOLUME: ± SEM. The protocol: as §4, with “The A549 non-small cell” for “Cell lines H1299 (human”, “human” for “carcinoma cell) and HCT116 (colon”, “cell line is purchased” for “cell) are obtained”, “line is” for “lines are”, “HBSS” for “HBSS (Hank's Balanced Salt Solution)”
as §1, §2, §9, §10

In series [8] the test system is HCT116 (colon tumor cell). The experiment in a line: Monolayer cell growth inhibition, MTS assay. Format: cell-based. The settings on record: Homo sapiens, HCT-116, HCT116, 72 hours compound treatment, lactate salts.
Description: as §4, §5, §6, §7
The stock solution is diluted with 5% dextrose injection, USP, just prior to dosing.

As to `O=C(/C=C/c1ccc(CN(CCO)CCc2c[nH]c3ccccc23)cc1)NO` [CMD2, N-hydroxy-3-[4-[[(2-hydroxyethyl)[2-(1H-indol-3-yl)ethyl]-amino]methyl]phenyl]-2E-2-propenamide], the “Δ % BODY WEIGHT” value in [1] (Table B4, A549, 25 mg/kg) is −4.2 ± 2.5%; in [1] (Table B4, A549, 50 mg/kg) it was −2.9 ± 1.5%; in series [4] (Table B6, HCT116, 10 mg/kg) it was −10.2 ± 0.5%; in series [4] (Table B6, HCT116, 25 mg/kg) it was −7.0 ± 0.2%; in series [4] (Table B6, HCT116, 50 mg/kg), −7.3 ± 0.3%; in [4] (Table B6, HCT116, 100 mg/kg), −9.4 ± 0.4%. The values for the IC50 in series [2], in series [5] and in series [8] were 150 nM, 63 nM and 10 nM, respectively. The “% T/C” value in series [3] (Table B4, A549, 25 mg/kg) is listed as 27%; in [3] (Table B4, A549, 50 mg/kg), 21%; in series [7] (Table B6, HCT116, 10 mg/kg) it was 56%; in series [7] (Table B6, HCT116, 25 mg/kg), 40%; in series [7] (Table B6, HCT116, 50 mg/kg), 13%; in series [7] (Table B6, HCT116, 100 mg/kg), 17%. The “Δ MEAN TUMOR VOLUME” value in series [3] (Table B4, A549, 25 mg/kg) was found to be 37 ± 16 mm^3; in series [3] (Table B4, A549, 50 mg/kg), 29 ± 15 mm^3; in [7] (Table B6, HCT116, 10 mg/kg) it was 422 ± 75 mm^3; in series [7] (Table B6, HCT116, 25 mg/kg), 305 ± 47 mm^3; in [7] (Table B6, HCT116, 50 mg/kg), 97 ± 30 mm^3; in [7] (Table B6, HCT116, 100 mg/kg), 132 ± 30 mm^3. Moreover, the “cells exhibiting cell surface staining with annexin V” value is “the majority” with HCT116 and “A small percentage” in the series with A549. The “cells staining with annexin V and/or propidium iodide” value (from here on “cells staining”) in the series with HCT116 and with A549 was “the majority” each time. Moreover, the “annexin V staining” value in series [6] (24 hour exposure) is on record as “do not show noticeable annexin V staining”.

As for `COc1ccc2[nH]cc(CCNCc3ccc(/C=C/C(=O)NO)cc3)c2c1` [CMD3, N-hydroxy-3-[4-[[[2-(5-methoxy-1H-indol-3-yl)-ethyl]-amino]methyl]pheny]-2E-2-propenamide], the IC50 (as a rule, the concentration that gives 50% inhibition) in [2] stood at 580 nM; in series [5], 14 nM; in series [8], 30 nM. The “cells exhibiting cell surface staining with annexin V” value in the series with HCT116 was “the majority”; in the series on A549, “A small percentage”. Also, the “cells staining” value in the series on HCT116 and in the series with A549 was “the majority” in each case. Moreover, the “annexin V staining” value was “do not show noticeable annexin V staining” in [6] (24 hour exposure) and “limited annexin V staining” in [6] (48 hour).

`O=C(/C=C/c1ccc(CNCCc2c[nH]c3ccc(F)cc23)cc1)NO` [CMD4, N-hydroxy-3-[4-[[[2-(5-fluoro-1H-indol-3-yl)-ethyl]-amino]methyl]phenyl]-2E-2-propenamide]: the IC50 in [2] was determined as 280 nM; in [5], 14 nM; in series [8], 30 nM. Moreover, the “cells exhibiting cell surface staining with annexin V” value is listed as “the majority” in the series on HCT116 and “A small percentage” with A549. Further, the “cells staining” value with HCT116 and in the series on A549 was “the majority” throughout. The “annexin V staining” value in series [6] (24 hour exposure) is recorded as “do not show noticeable annexin V staining”.

On to `O=C(/C=C/c1ccc(CNCCc2coc3ccccc23)cc1)NO` [CMD5, N-hydroxy-3-[4-[[[2-(benzofur-3-yl)-ethyl]-amino]methyl]phenyl]-2E-2-propenamide], for which the IC50 turned out to be 180 nM in series [2], 16 nM in series [5] and 30 nM in [8].

In the case of `Nc1ccccc1NC(=O)c1ccc(CNC(=O)OCc2cccnc2)cc1` [CMDC, reference compound], in [2], the half-inhibitory concentration (IC50) came out at 6800 nM.
